Data reported in US9416114B2, “1,2,4-triazine derivatives for the treatment of viral infections” (CENTRE NATIONAL DE LA RECHERCHE SCIENTIFIQUE (CNRS), priority 2012, dated 2016).
Like-named read-outs stand apart in the source and are kept apart here.

How the values were obtained:
Assay type in all cases: cell-based
human TLR8 = target: T1, human TLR8 (Homo sapiens, UniProt Q9NR97); assay: TLR8 cellular reporter assay (HEK293, NFκB-luc); details: HEK293 transiently transfected with TLR8 and NFκB-luc; 6 hours incubation; lowest effective concentration
T1 construct: expressed in transfected cells; host or cells: HEK293
T1 sequence (Q9NR97 27-1041): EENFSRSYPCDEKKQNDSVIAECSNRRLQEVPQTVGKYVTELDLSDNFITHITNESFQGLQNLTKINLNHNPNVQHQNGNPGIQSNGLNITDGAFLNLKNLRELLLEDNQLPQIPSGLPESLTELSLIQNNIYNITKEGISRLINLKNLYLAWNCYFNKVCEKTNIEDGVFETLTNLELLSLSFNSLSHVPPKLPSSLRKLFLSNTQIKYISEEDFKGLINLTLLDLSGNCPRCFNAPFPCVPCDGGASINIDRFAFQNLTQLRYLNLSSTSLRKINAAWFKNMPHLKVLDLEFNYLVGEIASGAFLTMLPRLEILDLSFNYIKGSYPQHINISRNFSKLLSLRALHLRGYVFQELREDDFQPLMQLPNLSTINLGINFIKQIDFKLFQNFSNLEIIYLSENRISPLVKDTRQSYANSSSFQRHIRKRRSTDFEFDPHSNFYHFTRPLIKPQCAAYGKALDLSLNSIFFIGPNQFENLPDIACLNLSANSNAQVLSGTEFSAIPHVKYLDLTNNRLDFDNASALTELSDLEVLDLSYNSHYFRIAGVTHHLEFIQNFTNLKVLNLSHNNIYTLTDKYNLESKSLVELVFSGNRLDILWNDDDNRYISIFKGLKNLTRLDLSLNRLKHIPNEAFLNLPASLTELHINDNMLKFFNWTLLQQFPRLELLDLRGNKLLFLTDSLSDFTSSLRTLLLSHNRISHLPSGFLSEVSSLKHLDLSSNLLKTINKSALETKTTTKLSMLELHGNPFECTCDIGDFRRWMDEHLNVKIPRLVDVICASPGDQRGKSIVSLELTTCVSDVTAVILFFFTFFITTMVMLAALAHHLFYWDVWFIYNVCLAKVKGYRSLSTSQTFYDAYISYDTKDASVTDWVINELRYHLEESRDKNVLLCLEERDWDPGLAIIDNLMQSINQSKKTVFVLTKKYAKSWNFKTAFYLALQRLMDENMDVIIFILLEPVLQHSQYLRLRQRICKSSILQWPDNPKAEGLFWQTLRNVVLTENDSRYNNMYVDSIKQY
Procedure: (§1) The ability of compounds to activate human TLR7 and/or TLR8 was assessed in a cellular reporter assay using HEK293 cells transiently transfected with a TLR7 or TLR8 expression vector and NFκB-luc reporter construct.
(§2) Briefly, HEK293 cells were grown in culture medium (DMEM supplemented with 10% FCS and 2 mM Glutamine). For transfection of cells in 10 cm dishes, cells were detached with Trypsin-EDTA, transfected with a mix of CMV-TLR7 or TLR8 plasmid (750 ng), NFκB-luc plasmid (375 ng) and a transfection reagent and incubated overnight at 37° C. in a humidified 5% CO2 atmosphere. […] Thirty microliters of cells were then dispensed into each well in 384-well plates, where 10 μL of compound in 4% DMSO was already present. Following 6 hours incubation at 37° C., 5% CO2, the luciferase activity was determined by adding 15 μL of Steady Lite Plus substrate (Perkin Elmer) to each well and readout performed on a ViewLux ultraHTS microplate imager (Perkin Elmer). Dose response curves were generated from measurements performed in quadruplicates.

[1] = system: interferon-stimulated responsive elements (ISRE); assay: Activation of ISRE promoter elements by conditioned media from PBMC (HEK-ISREluc); details: Homo sapiens, read-out: HEK-ISRE luc (LEC)
Procedure: The potential of compounds to induce IFN-I was also evaluated by measuring the activation of interferon-stimulated responsive elements (ISRE) by conditioned media from PBMC. The ISRE element of sequence […] is highly responsive to the STAT1-STAT2-IRF9 transcription factor, activated upon binding of IFN-I to their receptor IFNAR (Clontech, PT3372-5W). The plasmid pISRE-Luc from Clontech (ref. 631913) contains 5 copies of this ISRE element, followed by the firefly luciferase ORF. A HEK293 cell line stably transfected with pISRE-Luc (HEK-ISREluc) was established to profile of the conditioned PBMC cell culture media.
Briefly, PBMCs were prepared from buffy coats of at least two donors using a standard Ficoll centrifugation protocol. Isolated PBMCs were resuspended in RPMI medium supplemented with 10% human AB serum and 2×10^5 cells/well were dispensed into 384-well plates containing compounds (70 μL total volume). After overnight incubation, 10 μL of supernatant was transferred to 384-well plates containing 5×10^3 HEK-ISREluc cells/well in 30 μL (plated the day before). Following 24 hours of incubation, activation of the ISRE elements was measured by assaying luciferase activity using 40 μL/well Steady Lite Plus substrate (Perkin Elmer) and measured with ViewLux ultraHTS microplate imager (Perkin Elmer). The stimulating activity of each compound on the HEK-ISREluc cells was reported as LEC value, defined as the compound concentration applied to the PBMCs resulting in a luciferase activity at least two fold above the standard deviation of the assay. The LEC in turn indicates the degree of ISRE activation on transfer of a defined amount of PBMC culture medium. Recombinant interferon α-2a (Roferon-A) was used as a standard control compound.

human TLR7 = target: T2, human TLR7 (Homo sapiens, UniProt Q9NYK1); assay: TLR7 cellular reporter assay (HEK293, NFκB-luc); details: HEK293 transiently transfected with TLR7 and NFκB-luc; 6 hours incubation; lowest effective concentration
T2 construct: expressed in transfected cells; host or cells: HEK293
T2 sequence (Q9NYK1 27-1049): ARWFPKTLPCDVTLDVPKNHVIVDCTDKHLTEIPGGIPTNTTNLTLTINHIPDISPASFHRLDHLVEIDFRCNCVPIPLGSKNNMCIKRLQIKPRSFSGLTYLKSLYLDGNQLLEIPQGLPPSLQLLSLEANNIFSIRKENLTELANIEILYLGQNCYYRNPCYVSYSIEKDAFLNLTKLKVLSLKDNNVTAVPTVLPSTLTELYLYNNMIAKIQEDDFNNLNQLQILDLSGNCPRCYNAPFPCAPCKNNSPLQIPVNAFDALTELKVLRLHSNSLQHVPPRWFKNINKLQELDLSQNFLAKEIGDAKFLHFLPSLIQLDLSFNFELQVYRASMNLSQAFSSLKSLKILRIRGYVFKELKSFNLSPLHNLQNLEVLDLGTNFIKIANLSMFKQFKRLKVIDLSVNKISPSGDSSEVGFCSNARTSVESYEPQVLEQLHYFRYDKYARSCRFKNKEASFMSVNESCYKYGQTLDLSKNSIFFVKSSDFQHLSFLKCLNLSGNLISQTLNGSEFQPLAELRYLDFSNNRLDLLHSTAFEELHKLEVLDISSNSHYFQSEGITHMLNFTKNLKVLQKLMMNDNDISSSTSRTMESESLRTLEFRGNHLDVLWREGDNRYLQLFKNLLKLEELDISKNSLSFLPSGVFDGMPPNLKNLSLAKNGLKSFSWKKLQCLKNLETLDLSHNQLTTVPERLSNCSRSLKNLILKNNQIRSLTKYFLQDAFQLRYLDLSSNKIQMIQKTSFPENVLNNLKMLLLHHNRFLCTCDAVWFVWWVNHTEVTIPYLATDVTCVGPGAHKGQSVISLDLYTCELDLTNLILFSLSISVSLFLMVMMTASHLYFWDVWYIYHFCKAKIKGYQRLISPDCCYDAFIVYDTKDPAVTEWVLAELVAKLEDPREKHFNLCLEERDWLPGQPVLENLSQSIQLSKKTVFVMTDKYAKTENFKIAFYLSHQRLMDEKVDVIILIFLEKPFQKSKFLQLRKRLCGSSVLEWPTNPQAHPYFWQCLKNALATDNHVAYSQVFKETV
Procedure: as §1, §2

[2] = PBMC conditioned medium transferred to HEK-ISREluc cells, 24 hours, lowest effective concentration

Row | Human TLR 8 (LEC) (human TLR8) [µM] | Human TLR 7 (LEC) (human TLR7) [µM] | Compound | minimal effective concentration [1, 2] [µM] | minimal effective concentration ([1]; PBMC, 24 h) [µM]
1 | 0.81 | 0.38 | CCCCNc1nc(N)nnc1OCCCc1ccc(OC)cc1 [Compound 16] | 0.14 | –
2 | 0.56 | 0.24 | CCC[C@@H](CCO)Nc1nc(N)nnc1OCc1nccc(OC)c1OC [Compound 8] | 0.014 | –
3 | 0.64 | – | CCCCNc1nc(N)nnc1OCc1ccccc1OC [Compound 19] | 0.43 | –
4 | 1.93 | 2.94 | CCCCNc1nc(N)nnc1OCc1ccccc1 [Compound 15] | 1.85 | –
5 | – | 8.27 | CCCCNc1nc(N)nnc1OC(C)C [Compound 18] | 0.53 | –
6 | – | 7.8 | CCCC[C@@H](CCO)Nc1nc(N)nnc1OC [Compound 12] | 2.72 | –
7 | – | 17.49 | CCCCNc1nc(N)nnc1OC [Compound 17] | 1.02 | –
8 | – | 0.17 | CCCCNc1nc(N)nnc1OCc1ccccn1 [Compound 23] | 0.14 | –

Row | Compound | Human TLR 8 (LEC) (human TLR8) [µM] | Human TLR 7 (LEC) (human TLR7) [µM] | minimal effective concentration [1, 2] [µM] | minimal effective concentration ([1]; PBMC, 24 h) [µM]
9 | CCCCNc1nc(N)nnc1OCCCN(C)C [Compound 24] | 0.1 | >25 | – | 0.17
10 | CCCCNc1nc(N)nnc1OCCOC [Compound 22] | 1.0 | 4.75 | – | 0.41
11 | CCCCNc1nc(N)nnc1OCc1cccnc1 [Compound 21] | – | 1.71 | – | 0.14
12 | CCCCNc1nc(N)nnc1OCc1ccccc1F [Compound 20] | – | 0.75 | – | 0.54
